Target: T1, human GLP-1 receptor (Homo sapiens, UniProt P43220)
T1 construct: expressed in transfected cells
Test: GLP-1R cAMP Assay
Assay type: cell-based
Details: cAMP accumulation in CHO cells stably overexpressing the human GLP-1 receptor; 30 min treatment; HitHunter cAMP kit; read-out: EC50
Procedure, shortened: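 CHO cells stably overexpressing human GLP-1R, 10,000 cells/well, treated with compound in 20-point dose response in triplicate for 30 min. cAMP accumulation read by enzyme-complementation luminescence after lysis and overnight incubation; dose-response curves fitted.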

T1 sequence (P43220 24-463): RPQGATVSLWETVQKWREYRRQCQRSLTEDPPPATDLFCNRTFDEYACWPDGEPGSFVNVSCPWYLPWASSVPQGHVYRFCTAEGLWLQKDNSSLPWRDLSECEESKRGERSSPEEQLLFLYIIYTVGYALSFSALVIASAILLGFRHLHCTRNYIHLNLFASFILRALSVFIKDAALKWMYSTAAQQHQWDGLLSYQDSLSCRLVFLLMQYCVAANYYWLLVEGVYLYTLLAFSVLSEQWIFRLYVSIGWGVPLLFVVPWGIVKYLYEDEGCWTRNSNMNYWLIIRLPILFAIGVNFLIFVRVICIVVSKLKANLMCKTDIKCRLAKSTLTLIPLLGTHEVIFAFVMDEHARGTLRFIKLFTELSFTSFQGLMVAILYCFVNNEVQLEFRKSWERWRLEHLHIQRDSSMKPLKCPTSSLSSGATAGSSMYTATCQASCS

Compound: CCn1cncc1Cn1c(CN2CCN(C(=O)c3cc(N(C)c4ccc(C)cc4Cl)ccc3C)CC2)nc2ccc(C(=O)O)cc21 [Compound 76, 2-[(4-{5-[(2-chloro-4-methylphenyl)(methyl)amino]-2-methylbenzoyl}piperazin-1-yl)methyl]-1-[(1-ethyl-1H-imidazol-5-yl)methyl]-1H-1,3-benzodiazole-6-carboxylic acid]
- EC50: < 50 nM

Compound: C[C@H]1C[C@@H](Oc2ccnc(COc3ccc(C(F)(F)F)cc3F)n2)CCN1Cc1nc2ccc(C(=O)O)cc2n1C[C@@H]1CCO1 [Compound 376]
- EC50: < 50 nM

Compound: O=C(O)c1ccc2nc(CN3CCC(Oc4ccnc(COc5cc(F)c(F)cc5F)n4)CC3)n(C[C@@H]3CCO3)c2c1 [Compound 495, 1-{[(2S)-oxetan-2-yl]methyl}-2-{[4-({2-[(2,4,5-trifluorophenoxy)methyl]pyrimidin-4-yl}oxy)piperidin-1-yl]methyl}-1H-1,3-benzodiazole-6-carboxylic acid]
- EC50: < 50 nM

Compound: COc1ccc(Oc2cccc(C(=O)N3CCN(Cc4nc5ccc(C(=O)O)cc5n4C[C@@H]4CCO4)CC3)c2)cc1 [Compound 6, 2-({4-[3-(4-methoxyphenoxy)benzoyl]piperazin-1-yl}methyl)-1-{[(2S)-oxetan-2-yl]methyl}-1H-1,3-benzodiazole-6-carboxylic acid]
- EC50: > 500 nM

Compound: N#Cc1ccc(OCc2cc(OC3CCN(Cc4nc5ccc(C(=O)O)cc5n4C[C@@H]4CCO4)CC3)ccn2)c(Cl)c1 [Compound 358]
- EC50: < 50 nM

Compound: O=C(O)c1cc(F)c2nc(CN3CCC(Oc4ccnc(COc5ccc(F)cc5Cl)n4)CC3)n(C[C@@H]3CCO3)c2c1 [Compound 329]
- EC50: < 50 nM

Compound: CCn1cncc1Cn1c(CN2CCC(Oc3cc(COc4ccc(Cl)cc4Cl)ccn3)CC2)nc2ccc(C(=O)O)cc21 [Compound 179, 2-{[4-({4-[(2,4-dichlorophenoxy)methyl]pyridin-2-yl}oxy)piperidin-1-yl]methyl}-1-[(1-ethyl-1H-imidazol-5-yl)methyl]-1H-1,3-benzodiazole-6-carboxylic acid]
- EC50: < 50 nM

Compound: Cc1c(Cl)cccc1OCc1ccc(C(=O)N2CCN(Cc3nc4ccc(C(=O)O)cc4n3C[C@@H]3CCO3)CC2)o1 [Example 19, (S)-2-((4-(5-((3-Chloro-2-methylphenoxy)methyl)furan-2-carbonyl)piperazin-1-yl)methyl)-1-(oxetan-2-ylmethyl)-1H-benzo[d]imidazole-6-carboxylic acid]
- EC50: 50 to 500 nM

Compound: CCn1cncc1Cn1c(CN2CCC(C(O)c3cccc(COc4ccc(C)cc4Cl)c3)CC2)nc2ccc(C(=O)O)cc21 (racemic) [Example 130, 2-((4-((3-((2-Chloro-4-methylphenoxy)methyl)phenyl)(hydroxy)methyl)piperidin-1-yl)methyl)-1-((1-ethyl-1H-imidazol-5-yl)methyl)-1H-benzo[d]imidazole-6-carboxylic acid]
- EC50: < 50 nM

Compound: CCn1cncc1Cn1c(CN2CCC(C(F)(F)c3cccc(COc4ccc(Cl)cc4Cl)c3)CC2)nc2ccc(C(=O)O)cc21 [Compound 161, 2-{[4-({3-[(2,4-dichlorophenoxy)methyl]phenyl}difluoromethyl)piperidin-1-yl]methyl}-1-[(1-ethyl-1H-imidazol-5-yl)methyl]-1H-1,3-benzodiazole-6-carboxylic acid]
- EC50: < 50 nM

Compound: CCn1cncc1Cn1c(CN2CCC([C@H](F)c3cccc(COc4ccc(Cl)cc4Cl)c3)CC2)nc2ccc(C(=O)O)cc21 (single isomer, unassigned) [Compound 202]
- EC50: < 50 nM

Compound: CN(c1cccc(C(=O)N2CCN(Cc3nc4ccc(C(=O)O)cc4n3C[C@@H]3CCO3)CC2)c1)c1ccc(C2CC2)cc1Cl [Compound 122, 2-[(4-{3-[(2-chloro-4-cyclopropylphenyl)(methyl)amino]benzoyl}piperazin-1-yl)methyl]-1-{[(2S)-oxetan-2-yl]methyl}-1H-1,3-benzodiazole-6-carboxylic acid]
- EC50: < 50 nM

Compound: Cc1cc(C(=O)O)cc2c1nc(CN1CCC(Oc3ccnc(COc4ccc(F)cc4C#N)n3)CC1)n2C[C@@H]1CCO1 [Compound 500, 2-{[4-({2-[(2-cyano-4-fluorophenoxy)methyl]pyrimidin-4-yl}oxy)piperidin-1-yl]methyl}-4-methyl-1-{[(2S)-oxetan-2-yl]methyl}-1H-1,3-benzodiazole-6-carboxylic acid]
- EC50: < 50 nM

Compound: C[C@H]1C[C@@H](Oc2ccnc(COc3ccc(F)cc3F)n2)CCN1Cc1nc2ccc(C(=O)O)cc2n1C[C@@H]1CCO1 [Compound 485, 2-{[(2S,4S)-4-({2-[(2,4-difluorophenoxy)methyl]pyrimidin-4-yl}oxy)-2-methylpiperidin-1-yl]methyl}-1-{[(2S)-oxetan-2-yl]methyl}-1H-1,3-benzodiazole-6-carboxylic acid]
- EC50: < 50 nM

Compound: CCn1cncc1Cn1c(CN2CCC(Cc3cncc(COc4ccc(Cl)cc4Cl)c3)CC2)nc2ccc(C(=O)O)cc21 [Compound 139, 2-{[4-({5-[(2,4-dichlorophenoxy)methyl]pyridin-3-yl}methyl)piperidin-1-yl]methyl}-1-[(1-ethyl-1H-imidazol-5-yl)methyl]-1H-1,3-benzodiazole-6-carboxylic acid]
- EC50: < 50 nM

Compound: COCCn1c(CN2CCC(Oc3ccnc(COc4ccc(Cl)cc4F)c3)CC2)nc2c(F)cc(C(=O)O)cc21 [Compound 344]
- EC50: < 50 nM

Compound: CCn1cncc1Cn1c(CN2CCC(=Cc3ccnc(COc4ccc(Cl)cc4Cl)c3)CC2)nc2ccc(C(=O)O)cc21 [Example 155, 2-((4-((2-((2,4-Dichlorophenoxy)methyl)pyridin-4-yl)methylene)piperidin-1-yl)methyl)-1-((1-ethyl-1H-imidazol-5-yl)methyl)-1H-benzo[d]imidazole-6-carboxylic acid]
- EC50: < 50 nM

Compound: O=C(O)c1ccc2nc(CN3CCN(C(=O)c4cccc(Oc5ccc(F)cc5)c4)CC3)n(C[C@@H]3CCO3)c2c1 [Compound 13, 2-({4-[3-(4-fluorophenoxy)benzoyl]piperazin-1-yl}methyl)-1-{[(2S)-oxetan-2-yl]methyl}-1H-1,3-benzodiazole-6-carboxylic acid]
- EC50: > 500 nM

Compound: O=C(O)c1ccc2nc(CN3CCC(Oc4ccccc4COc4ccc(Cl)cc4Cl)CC3)n(C[C@@H]3CCO3)c2c1 [Compound 284, 2-[(4-{2-[(2,4-dichlorophenoxy)methyl]phenoxy}piperidin-1-yl)methyl]-1-{[(2S)-oxetan-2-yl]methyl}-1H-1,3-benzodiazole-6-carboxylic acid]
- EC50: > 500 nM

Compound: O=C(O)c1ccc2nc(CN3CCC(Oc4ccnc(COc5ccc(Cl)cc5)c4)CC3)n(C[C@@H]3CCO3)c2c1 [Compound 352]
- EC50: < 50 nM

Compound: O=C(O)c1ccc2nc(CN3CCN(Cc4ccc(COc5ccc(Cl)cc5Cl)o4)CC3)n(C[C@@H]3CCO3)c2c1 [Compound 9, 2-{[4-({5-[(2,4-dichlorophenoxy)methyl]furan-2-yl}methyl)piperzin-1-yl]methyl}-1-{[(2S)-oxetan-2-yl]methyl}-1H-1,3-benzodiazole-6-carboxylic acid]
- EC50: 50 to 500 nM

Compound: CCn1cncc1Cn1c(CN2CCC(Oc3ccnc(COc4ccc(Cl)cc4F)c3)CC2)nc2ccc(C(=O)O)cc21 [Example 230, 2-((4-((2-((4-Chloro-2-fluorophenoxy)methyl)pyridin-4-yl)oxy)piperidin-1-yl)methyl)-1-((1-ethyl-1H-imidazol-5-yl)methyl)-1H-benzo[d]imidazole-6-carboxylic acid]
- EC50: < 50 nM

— patent US20230089073A1 (Carmot Therapeutics, Inc., priority 2021, published 2023)
